IC50 and inhibition data for 15 compounds are collected here from ChEMBL document CHEMBL1152287, “Structure-activity relationships of acetylcholinesterase noncovalent inhibitors based on a polyamine backbone. 4. Further investigation on the inner spacer” (J Med Chem, 2008).

By IC50 is commonly meant the concentration that inhibits the measured activity by half. Broadly, the inhibition is how much of the control response was suppressed. Read a low inhibition as little suppression.

One test concerns the target Acetylcholinesterase (Homo sapiens, UniProt P22303). Nature of the test: Inhibition of human recombinant AChE by Ellman's assay. (DTNB colorimetry detects thiols as they appear.)
The target in the next test is Cholinesterase (Homo sapiens, UniProt P06276). Nature of the test: Inhibition of human serum BChE by Ellman's assay.
Chain of Cholinesterase (P06276 whole entry): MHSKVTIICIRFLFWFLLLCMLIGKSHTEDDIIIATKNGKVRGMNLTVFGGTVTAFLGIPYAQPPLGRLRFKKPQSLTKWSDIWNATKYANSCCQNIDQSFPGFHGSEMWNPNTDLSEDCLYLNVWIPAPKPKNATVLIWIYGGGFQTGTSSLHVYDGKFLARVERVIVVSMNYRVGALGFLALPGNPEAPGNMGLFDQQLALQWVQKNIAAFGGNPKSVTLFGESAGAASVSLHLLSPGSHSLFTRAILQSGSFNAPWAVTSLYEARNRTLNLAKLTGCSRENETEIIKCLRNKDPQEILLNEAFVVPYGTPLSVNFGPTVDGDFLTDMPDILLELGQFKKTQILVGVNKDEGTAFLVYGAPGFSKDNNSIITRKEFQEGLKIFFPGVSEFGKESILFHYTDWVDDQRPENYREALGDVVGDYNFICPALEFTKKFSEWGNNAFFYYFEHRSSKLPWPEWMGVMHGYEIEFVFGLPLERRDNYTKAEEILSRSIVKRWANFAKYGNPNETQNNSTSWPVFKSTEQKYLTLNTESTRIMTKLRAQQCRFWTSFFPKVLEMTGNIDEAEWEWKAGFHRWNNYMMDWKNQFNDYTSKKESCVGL
In test [1] the target is T1, Amyloid-beta precursor protein (Homo sapiens, UniProt P05067). Nature of the test: Inhibition of self-induced amyloid beta (1-40) aggregation at 10 uM by thioflavin T formation assay.
T1 sequence (P05067 whole entry): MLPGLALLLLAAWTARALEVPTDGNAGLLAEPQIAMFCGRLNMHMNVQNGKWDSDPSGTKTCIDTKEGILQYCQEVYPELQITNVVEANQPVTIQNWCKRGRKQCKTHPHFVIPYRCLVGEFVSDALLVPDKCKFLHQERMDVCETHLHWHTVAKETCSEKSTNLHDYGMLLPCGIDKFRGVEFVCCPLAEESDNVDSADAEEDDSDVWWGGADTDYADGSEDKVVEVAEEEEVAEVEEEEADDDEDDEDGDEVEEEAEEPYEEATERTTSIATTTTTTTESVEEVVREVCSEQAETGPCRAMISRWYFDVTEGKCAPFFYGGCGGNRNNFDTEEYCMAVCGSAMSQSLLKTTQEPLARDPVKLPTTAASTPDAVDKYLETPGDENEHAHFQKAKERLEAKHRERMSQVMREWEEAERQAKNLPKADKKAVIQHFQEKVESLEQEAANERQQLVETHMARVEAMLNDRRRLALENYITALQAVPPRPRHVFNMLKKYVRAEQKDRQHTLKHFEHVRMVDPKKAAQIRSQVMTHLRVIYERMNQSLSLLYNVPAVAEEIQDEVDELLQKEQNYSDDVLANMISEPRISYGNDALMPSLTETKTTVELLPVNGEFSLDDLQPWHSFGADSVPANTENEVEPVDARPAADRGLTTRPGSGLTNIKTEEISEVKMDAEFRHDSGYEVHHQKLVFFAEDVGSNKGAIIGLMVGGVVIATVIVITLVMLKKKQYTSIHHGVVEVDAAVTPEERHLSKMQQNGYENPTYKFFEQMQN
Test [2] has as its target T1, Amyloid-beta precursor protein. Nature of the test: Inhibition of self-induced amyloid beta (1-40) aggregation by thioflavin T formation assay.

Where only a bound is given, the exact number is not on record here.

Chain of Acetylcholinesterase (P22303 whole entry): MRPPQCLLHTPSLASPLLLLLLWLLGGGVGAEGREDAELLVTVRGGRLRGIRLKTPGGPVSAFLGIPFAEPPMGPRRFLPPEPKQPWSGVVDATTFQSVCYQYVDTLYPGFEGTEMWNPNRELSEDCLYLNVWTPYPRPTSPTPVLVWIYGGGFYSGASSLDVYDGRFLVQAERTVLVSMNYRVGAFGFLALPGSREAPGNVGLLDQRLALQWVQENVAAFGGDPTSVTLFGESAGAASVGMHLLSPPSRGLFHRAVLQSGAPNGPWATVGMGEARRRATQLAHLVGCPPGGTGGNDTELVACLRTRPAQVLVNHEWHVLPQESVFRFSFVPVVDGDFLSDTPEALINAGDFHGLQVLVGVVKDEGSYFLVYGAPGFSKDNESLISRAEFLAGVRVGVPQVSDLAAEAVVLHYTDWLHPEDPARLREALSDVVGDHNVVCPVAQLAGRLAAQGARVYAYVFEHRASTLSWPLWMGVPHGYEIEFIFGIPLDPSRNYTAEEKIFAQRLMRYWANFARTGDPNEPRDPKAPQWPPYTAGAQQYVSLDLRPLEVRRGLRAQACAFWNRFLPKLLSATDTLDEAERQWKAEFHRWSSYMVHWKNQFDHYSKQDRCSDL

Turning to `CCN(CCCCCCn1c(=O)c(=O)n(CCCCCCN(CC)Cc2ccccc2OC)c2ccccc21)Cc1ccccc1OC`, the 50% inhibitory concentration (IC50) was found to be 1.41 nM on Acetylcholinesterase and 95.8 nM on Cholinesterase. Besides, the inhibition in test [1] came out at 8.8%.

In the case of `CCN(CCCCCCN1CCN(CCCCCCN(CC)Cc2ccccc2OC)C1=O)Cc1ccccc1OC`, the IC50 came out at 72.4 nM at Acetylcholinesterase and 876 nM on Cholinesterase. In test [1], this compound had an inhibition of under 5%.

Take `CCN(CCCCCC(=O)N1Cc2ccc3c4c(ccc(c24)C1)CN(C(=O)CCCCCN(CC)Cc1ccccc1OC)C3)Cc1ccccc1OC`: the IC50 on Acetylcholinesterase was 4.83 nM; against Cholinesterase it was 1040 nM. In test [1], this compound registered an inhibition of 12.7%.

`CCN(CCCCCCN1C(=O)c2ccc(-c3ccc4c(c3)C(=O)N(CCCCCCN(CC)Cc3ccccc3OC)C4=O)cc2C1=O)Cc1ccccc1OC`: the IC50 on Acetylcholinesterase turned out to be 14 nM; on Cholinesterase, 293 nM. For the same compound, in test [1], the inhibition is 16.5%.

Turning to `CCN(CCCCCC(=O)N1CCN(C(=O)CCCCCN(CC)Cc2ccccc2OC)CC1)Cc1ccccc1OC`, the IC50 at Acetylcholinesterase is 25.7 nM; against Cholinesterase it was 10700 nM. For the same compound, the inhibition in test [1] is under 5%.

`CCN(CCCCCC(=O)N1CCC(C2CCN(C(=O)CCCCCN(CC)Cc3ccccc3OC)CC2)CC1)Cc1ccccc1OC`: in test [1], the inhibition was found to be 13.7%.

As to `CCN(CCCCCCN1C(=O)c2cccc3cccc(c23)C1=O)Cc1ccccc1OC`, the values for the IC50 on Acetylcholinesterase and at Cholinesterase were 53.5 nM and 416 nM, respectively. Further, the inhibition in test [1] is under 5%.

Regarding `CCN(CCCCCCN1CC(=O)N(CCCCCCN(CC)Cc2ccccc2OC)CC1=O)Cc1ccccc1OC`, the half-maximal inhibitory concentration (IC50) at Acetylcholinesterase turned out to be 15.9 nM; against Cholinesterase, 2090 nM. For the same compound, the inhibition in test [1] came to 4.8%.

As for `CCN(CCCCCCN1CCN(CCCCCCN(CC)Cc2ccccc2OC)C(=O)C1=O)Cc1ccccc1OC`, the figures for the concentration for half-maximal inhibition (IC50) on Acetylcholinesterase and at Cholinesterase were 68.9 nM and 10300 nM, respectively.

`CCN(CCCCCCN1C(=O)c2ccc3c4c(ccc(c24)C1=O)C(=O)N(CCCCCCN(CC)Cc1ccccc1OC)C3=O)Cc1ccccc1OC`: the IC50 on Acetylcholinesterase was found to be 0.37 nM; against Cholinesterase, 1910 nM; in test [2] it was 9690 nM. Besides, the inhibition in test [1] stood at 54.5%.

Take `CCN(CCCCCC(=O)N[C@H]1CCCC[C@H]1NC(=O)CCCCCN(CC)Cc1ccccc1OC)Cc1ccccc1OC`: the half-maximal inhibitory concentration (IC50) on Acetylcholinesterase stood at 4160 nM; against Cholinesterase it was 30800 nM.

The compound `COc1ccccc1CN(C)CCCCCC(=O)N(C)CCCCCCCCN(C)C(=O)CCCCCN(C)Cc1ccccc1OC` returned an inhibition in test [1] of 20.3%.

Regarding `CCN(CCCCCCn1c(=O)c2cc3c(=O)n(CCCCCCN(CC)Cc4ccccc4OC)c(=O)c3cc2c1=O)Cc1ccccc1OC`, the IC50 is 7.7 nM on Acetylcholinesterase and 3000 nM on Cholinesterase. This compound also showed an inhibition in test [1] of under 5%.

Consider `CCN(CCCCCC(=O)N[C@H]1CCCC[C@@H]1NC(=O)CCCCCN(CC)Cc1ccccc1OC)Cc1ccccc1OC` (racemic), for which the IC50 at Acetylcholinesterase turned out to be 5470 nM; against Cholinesterase it was 36800 nM.

Take `CCN(CCCCCC(=O)N[C@H]1CC[C@H](NC(=O)CCCCCN(CC)Cc2ccccc2OC)CC1)Cc1ccccc1OC`: the IC50 was found to be 8550 nM at Acetylcholinesterase and 25300 nM on Cholinesterase.
